Test results: patent publication US20220031710A1, “USE OF ERK5 INHIBITORS FOR TREATING GLIOMAS IN PEDIATRIC SUBJECTS” (UNIVERSITY OF PITTSBURGH - OF THE COMMONWEALTH SYSTEM OF …, priority 2019, published 2022)
One block for each compound: values may come before it. Where a SMILES comes first, the peptide text is derived from it. The star is where a group is joined. Cbz = O=C(OCc1ccccc1)*

Experiments:
EZH2 = biological target: T1, EZH2 (Homo sapiens, UniProt Q15910); assay: Western blot of H3K27Me3, RAS activation and p16 in NSCs treated with EZH2 inhibitor; assay type: cell-based; conditions: GSK343 (504)
T1 construct: endogenous in cells; host or cells: H9 hESC-derived human neural stem cells
T1 sequence (Q15910 whole entry): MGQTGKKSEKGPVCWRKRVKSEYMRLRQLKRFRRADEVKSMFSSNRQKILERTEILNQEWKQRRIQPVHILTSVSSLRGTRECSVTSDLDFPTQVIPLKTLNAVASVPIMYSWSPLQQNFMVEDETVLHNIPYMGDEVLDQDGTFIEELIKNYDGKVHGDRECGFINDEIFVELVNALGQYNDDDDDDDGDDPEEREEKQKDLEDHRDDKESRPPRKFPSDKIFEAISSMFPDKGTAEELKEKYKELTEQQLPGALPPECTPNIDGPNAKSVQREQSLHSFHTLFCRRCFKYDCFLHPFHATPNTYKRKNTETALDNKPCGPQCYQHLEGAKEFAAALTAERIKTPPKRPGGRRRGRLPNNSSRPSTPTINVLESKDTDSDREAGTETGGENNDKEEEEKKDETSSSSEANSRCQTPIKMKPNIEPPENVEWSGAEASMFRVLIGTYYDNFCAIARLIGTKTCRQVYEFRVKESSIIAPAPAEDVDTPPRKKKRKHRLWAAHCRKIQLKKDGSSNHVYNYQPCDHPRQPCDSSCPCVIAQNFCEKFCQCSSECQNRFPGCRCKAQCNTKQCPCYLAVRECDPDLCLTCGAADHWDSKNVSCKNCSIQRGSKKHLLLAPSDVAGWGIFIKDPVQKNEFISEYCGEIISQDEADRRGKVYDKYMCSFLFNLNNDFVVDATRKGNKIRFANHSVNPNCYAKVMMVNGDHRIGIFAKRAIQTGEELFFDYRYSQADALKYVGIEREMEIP
T1 sequence (O75530 whole entry partner): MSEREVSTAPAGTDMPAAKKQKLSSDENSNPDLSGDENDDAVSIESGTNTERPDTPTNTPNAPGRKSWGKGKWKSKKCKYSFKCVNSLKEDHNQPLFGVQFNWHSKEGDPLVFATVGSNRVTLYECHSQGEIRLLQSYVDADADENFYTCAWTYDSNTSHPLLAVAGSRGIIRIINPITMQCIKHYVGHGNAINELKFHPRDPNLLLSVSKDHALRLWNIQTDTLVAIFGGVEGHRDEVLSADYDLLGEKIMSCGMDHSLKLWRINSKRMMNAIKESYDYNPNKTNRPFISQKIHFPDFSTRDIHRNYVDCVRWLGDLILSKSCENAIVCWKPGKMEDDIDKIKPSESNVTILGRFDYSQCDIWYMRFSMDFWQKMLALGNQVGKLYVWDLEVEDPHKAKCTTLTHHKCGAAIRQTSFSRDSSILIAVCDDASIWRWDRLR
T1 sequence (Q15022 whole entry partner): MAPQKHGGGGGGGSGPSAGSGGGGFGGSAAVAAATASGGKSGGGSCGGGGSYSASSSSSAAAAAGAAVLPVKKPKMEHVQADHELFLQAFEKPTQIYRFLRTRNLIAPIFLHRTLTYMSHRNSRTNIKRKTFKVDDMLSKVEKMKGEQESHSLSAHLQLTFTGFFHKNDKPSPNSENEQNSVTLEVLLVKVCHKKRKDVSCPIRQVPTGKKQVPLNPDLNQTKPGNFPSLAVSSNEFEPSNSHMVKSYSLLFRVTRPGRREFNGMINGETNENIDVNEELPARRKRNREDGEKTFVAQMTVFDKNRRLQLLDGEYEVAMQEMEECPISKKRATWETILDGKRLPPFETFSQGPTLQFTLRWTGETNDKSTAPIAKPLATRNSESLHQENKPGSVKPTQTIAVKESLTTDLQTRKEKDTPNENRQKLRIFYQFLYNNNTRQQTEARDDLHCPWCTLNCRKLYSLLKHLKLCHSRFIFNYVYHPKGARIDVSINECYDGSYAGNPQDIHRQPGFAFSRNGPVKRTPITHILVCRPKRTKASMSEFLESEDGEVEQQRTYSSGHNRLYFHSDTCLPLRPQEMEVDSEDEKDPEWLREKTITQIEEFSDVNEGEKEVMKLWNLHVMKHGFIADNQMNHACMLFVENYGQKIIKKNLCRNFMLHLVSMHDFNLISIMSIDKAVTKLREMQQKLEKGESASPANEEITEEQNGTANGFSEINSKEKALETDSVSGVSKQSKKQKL
T1 sequence (Q09028 whole entry partner): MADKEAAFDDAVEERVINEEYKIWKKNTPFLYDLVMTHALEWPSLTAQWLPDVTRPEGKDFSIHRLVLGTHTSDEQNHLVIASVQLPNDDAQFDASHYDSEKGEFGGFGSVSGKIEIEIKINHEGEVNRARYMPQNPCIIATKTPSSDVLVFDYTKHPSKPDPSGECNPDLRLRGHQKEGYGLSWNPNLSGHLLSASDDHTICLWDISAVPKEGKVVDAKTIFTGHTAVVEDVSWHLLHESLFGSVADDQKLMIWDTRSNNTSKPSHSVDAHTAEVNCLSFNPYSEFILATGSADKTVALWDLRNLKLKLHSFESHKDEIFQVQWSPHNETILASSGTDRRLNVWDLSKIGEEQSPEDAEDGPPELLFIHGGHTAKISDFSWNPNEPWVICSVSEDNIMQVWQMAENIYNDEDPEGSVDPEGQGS
Description: RAS activity was measured using the RAS activation assay (Cell Signaling Technology, Cat #8814). Briefly, active Ras Detection GST-RAF1-RBD fusion protein was used to bind the activated form of GTP-bound RAS, which was then immunoprecipitated from 500 μg of total cell lysate with glutathione resin. RAS activation levels were then determined by western blot using a RAS Mouse mAb. Activated RAS immune-precipitate was normalized to total RAS from whole cell lysate.
(§1) Cell pellets were lysed in PLC lysis buffer containing protease and phosphatase inhibitors (Roche Inc.). Protein lysates were quantified using the bicinchoninic acid (BCA) assay (Pierce Chemical Co., Rockford, Ill.). 30 μg of total protein lysate was loaded in 10% SDS-PAGE gels and electrophoresed. Proteins were transferred to PVDF membranes using a semi-dry transfer apparatus (Bio-Rad). Membranes were blocked for one hour and probed for various proteins overnight in 5% non-fat milk or 5% BSA in Tris Buffered Saline Solution, 0.5% Tween-20 (TBST) or Phosphate Buffered Saline Solution with 0.5% Tween-20 (PBST). Membranes were washed for 5 mins in TBST (3×) and incubated with horseradish peroxidase-conjugated antibodies specific for the primary antibody (BioRad Laboratories, Inc., CA, USA). Binding was detected using Chemiluminescence Reagent Plus (PerkinElmer Inc., MA, USA).

NSCs = assay: Direct Trypan-Blue automated cell count of NSCs treated with EZH2 inhibitor; assay type: cell-based, human; conditions: GSK343 (504), over 5 days
Description: Direct cell counts were performed using the Countess II FL Automated Cell Counter (ThermoFisher Scientific). Alamar blue viability (ThermoFisher Scientific) and the 5-bromo-2′-deoxyuridine (BrdU) incorporated cell proliferation assay (Cell Signaling Technology Cat #6813) were performed using the manufacturer's standard protocol. EC50 curve analysis was performed using raw fluorescent Alamar blue values that were inputted into PRISM 7.0. Drug concentrations were log 10 transformed and values normalized to percent viability with respect to vehicle treated cells. EC50 values were interpolated from a log inhibitor vs. normalized response with variable slope using a least square fit model.

MYC = assay: Western blot of phospho MYC S62 and total MYC in DIPG cells; assay type: cell-based, human; conditions: DIPG-IV cells with ERK5 knockdown (Dox); MG132 10 uM
Description: as §1

RASAL1 = assay: Western blot of RASAL1 after decitabine treatment; assay type: cell-based, human; conditions: DIPG-007 and NSC H3K27M cells; 5 days; 1 μM
Description: as §1

CDKN2A locus (p16 protein immunoblot) (EZH2): activation of the CDKN2A locus
H3K27Me3 (EZH2): loss of H3K27Me3
activated RAS (EZH2): reduced activated RAS
Compound: CCCc1cc(C)[nH]c(=O)c1CNC(=O)c1cc(-c2ccnc(N3CCN(C)CC3)c2)cc2c1cnn2C(C)C [GSK343]
cell proliferation (NSCs): reduced cell proliferation

Compound: CC(C)C[C@@H](C=O)NC(=O)[C@H](CC(C)C)NC(=O)[C@H](CC(C)C)NC(=O)OCc1ccccc1 [MG132] (Cbz-Leu-Leu-Leu-aldehyde)
protein expression of total MYC (MYC): restored

Compound: Nc1ncn([C@H]2C[C@H](O)[C@@H](CO)O2)c(=O)n1 [decitabine, 5-aza-2′-deoxycytidine]
expression of RASAL1 protein (RASAL1): restored
